From US9434687B2, “Detection of synthetic cannabinoids” (priority 2011, dated 2016)

Columns and labels:
Assay type in all cases: binding, sheep
[1] = tested on: antibodies raised to Immunogens I & II; assay: Competitive ELISA, selected molecules as potential cross-reactants (Table 3); details: for % CR / IC50: Table 3, standard conc 750.00 ng/ml
Protocol: (a) The wells of an enhanced binding 96 well polystyrene microtiter plate were coated with the Ig fraction of the antiserum raised to Immunogen I (Hapten A-BTG—example 5) and diluted in 10 mM Tris, pH8.5 (125 μl/well). The appropriate antibody coating concentration was determined using standard ELISA checkerboard techniques. The plate was incubated for 2 hours at 37° C., washed 4 times over a 10-minute period with Tris buffered saline containing Tween 20 (TBST) and tapped dry. Standard solutions of JWH synthetic cannabinoids, metabolites and selected molecules were prepared in TBST and 50 μl of each was added to the appropriate wells. 75 μl of conjugate (Hapten A-HRP) diluted in Tris buffer containing EDTA, D-mannitol, sucrose, thimerosal and BSA, was added to each of the wells. The appropriate dilution of conjugate was also determined using standard ELISA checkerboard techniques. The plate was incubated at 25° C. for 1 hour. The excess unbound conjugate was removed by washing 6 times over a 10-minute period with TBST and tapped dry. 125 μl of tetramethylbenzedine (TMB) substrate solution was added to each well of the plate that was then incubated for 15-20 minutes in the dark at room temperature. The reaction was terminated by addition of 125 μl of 0.2M sulphuric acid to each well. The absorbance was then measured at 450 nm using a microtiter plate reader.
Employing each series of standards, calibration curves were generated and these were used to determine the specificity of the immunoassay for the JWH synthetic cannabinoids, metabolites and selected molecules. The results of this study are presented in Tables 1 to 3, cross-reactivity being calculated according to the following formula: % CR=IC50,JWH-018/IC50,CR×100
Where % CR is the percentage cross-reactivity, IC50, JWH-018 is the concentration of JWH-018 that causes 50% displacement of signal and IC50, CR is the concentration of JWH synthetic cannabinoid/metabolite/selected molecule that causes 50% displacement of signal.
The antibody produced from Immunogen I is able to bind to JWH molecules known to be incorporated in herbal therapeutics such as JWH-018, proposed metabolites such as M2 (Wintermeyer et al 2010), and potential metabolites such as M5. The detection and quantification of other JWH SSCs is also provided for, the antibodies of the invention bind a range of molecules comprising the 3-(1-naphthoyl)-1H-indole structure (e.g. JWH-071, JWH-398, M1 etc.). […] The concept of using the antibodies of the invention to detect and determine future stealth synthetic cannabinoids is highlighted in Table 4; the 5-fluoropentyl derivative known to bind the CB 1 receptor, but which as of yet has not been detected in herbal therapeutics or similar substances, binds to antibodies raised from Immunogens I and II.

[2] = tested on: IgG fraction of antiserum raised to Immunogen IV; details: Antibody to Immunogen IV; cross-reactants at 100 ng/ml; 1000 ng/ml; standard JWH-018
[3] = tested on: IgG fraction of antiserum raised to Immunogen VII; details: Antibody to Immunogen VII; cross-reactants at 100 ng/ml; 1000 ng/ml; standard JWH-015
[4] = tested on: IgG fraction of antiserum raised to Immunogen VIII; details: Antibody to Immunogen VIII; cross-reactants at 100 ng/ml; 1000 ng/ml; standard JWH-018
[5] = tested on: IgG fraction of antiserum raised to Immunogen I; details: Antibody to Immunogen I; cross-reactants at 100 ng/ml; 1000 ng/ml; standard JWH-018
Summary of the method: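 Plates were coated with the IgG fraction of sheep antiserum raised to Immunogen I and incubated with standards (JWH-018, 0-40 ng/ml) plus hapten-HRP conjugate for 1 h at 25° C. Detection used TMB, read at 450 nm. IC50 was taken from a 4-parameter fit as the concentration giving half the zero-standard OD.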

Row | Compound | % CR [1] [%] | IC50 [1] [µg/mL] | % B/B0 [2] [%] | % B/B0 [3] [%] | % B/B0 [4] [%] | % B/B0 [5] [%] | binding / cross-reaction with antibodies raised from Immunogens I and II (in words) [1]
1 | OCCc1c[nH]c2ccc(O)cc12 [5-hydroxytryptophol] | <0.28 | >0.75 | 94.51 | 98.45 | 102.93 | 93.30 | –
2 | CCCCCc1cc(O)c2c(c1)OC(C)(C)c1ccc(C)cc1-2 [Cannabinol] | <0.28 | >0.75 | 94.74 | 95.43 | 94.03 | 86.60 | –
3 | CCCCCCC(C)(C)c1ccc([C@H]2CCC[C@@H](O)C2)c(O)c1 [CP-49,497-C7] | <0.28 | >0.75 | 96.84 | 94.23 | 86.95 | 101.20 | –
4 | CCCCCc1cc(O)c2c(c1)OC(C)(C)[C@@H]1CCC(C)=C[C@@H]21 [Delta 9 THC] | <0.28 | >0.75 | 93.62 | 96.76 | 96.10 | 102.66 | –
5 | O=C(O)c1c[nH]c2ccccc12 [Indole-3-carboxylic Acid] | <0.28 | >0.75 | 93.42 | 96.90 | 96.28 | 101.26 | do not cross-react
